Assay results: patent publication US20260034192A1 (University of Saskatchewan, priority 2022, published 2026)
Where “and” joins values, the source holds several entries; their conditions need not be identical. Equal entries are not always repeated. Entries after “also recorded” stand apart in the source; their conditions may differ. Square brackets hold non-standard residues; d marks the D form. Peptide text beside a SMILES is read from it. dPhe(4-Cl) = N[C@H](Cc1ccc(Cl)cc1)C(=O)O; d2Nal = N[C@H](Cc1ccc2ccccc2c1)C(=O)O; dCit = NC(=O)NCCC[C@@H](N)C(=O)O; d3Pal = N[C@H](Cc1cccnc1)C(=O)O

Assays:
mature Angus heifers = experiment: Cetrorelix versus estradiol benzoate synchronization protocol with AI, random day of cycle (Example 7); format: in vivo, cattle
Method: This experiment was conducted on 38 mature Angus heifers at the Federal University of Santa Maria in Brazil. Heifers on a random day of the cycle (defined as Day 0) were divided into 2 groups (n=19 per group) and treated with a single i/m injection of 3 mg cetrorelix or with estradiol benzoate (1 mg i/m). A progesterone-releasing device (CIDR) was placed in the vagina of heifers at this time. Eight days after the cetrorelix or estradiol treatments, heifers were given 500 ug cloprostenol (prostaglandin analog) i/m injections and the CIDR device was removed. […] Heifers were given 250 ug gonadorelin acetate (GnRH analog) i/m injection at the time of artificial insemination. […] Pregnancy diagnosis was done 29-30 days after artificial insemination.

[1] = tested on: GnRH-induced plasma LH levels and ovulation; experiment: GnRH challenge in heifers pre-treated with GnRH antagonists: plasma LH and ovulation (Example 10); format: in vivo, cattle; settings: for Plasma LH response to GnRH challenge: heifers pre-treated with antagonist 60 minutes before GnRH injection
Method: Methods: Pubertal heifers (n=10) with a functional CL were selected at the Federal University of Santa Maria. Heifers were administered an intramuscular (i/m) injection of prostaglandin F2a analog (PGF; Lutalyse 5 ml or Estrumate 2 ml) to induce CL regression. Heifers were randomly placed into 4 treatment groups at the time of PGF injection: Trt1 (n=2, 3 mg of Abarelix); Trt2 (n=2, 3 mg of Degarelix), Trt3 (n=2, 3 mg of Relugolix) and Trt 4 (n=4; Cetrorelix 3 mg). Heifers were treated with these GnRH antagonists 1.5 days (36 hr) after the PGF injection and the GnRH antagonist treatment time point was defined as −60 mins. Heifers were treated with GnRH ([…] of Fertagyl i/m) at 0 mins to induce ovulation. Jugular venipuncture plasma samples were collected every 60 minutes for 3 hours (from −60 min to 120 minutes, with t=0 min when GnRH is administered). Plasma samples were kept at 4C overnight and LH analysis was performed the next day using a bovine-specific ELISA commercial kit. Transrectal ultrasonography was conducted to the time of GnRH injection (Time 0 hr) and 2 days later (48 hr after GnRH injection) to record the size of dominant follicle and to detect ovulation after treatment.

[2] = 3 mg cetrorelix or 1 mg estradiol benzoate i/m
[3] = individual heifers, 3 mg antagonist 60 min before GnRH
[4] = individual heifers, after GnRH injection, 3 mg antagonist at −60 min

CC(=O)N[C@H](Cc1ccc2ccccc2c1)C(=O)N[C@H](Cc1ccc(Cl)cc1)C(=O)N[C@H](Cc1cccnc1)C(=O)N[C@@H](CO)C(=O)N[C@@H](Cc1ccc(O)cc1)C(=O)N[C@H](CCCNC(N)=O)C(=O)N[C@@H](CC(C)C)C(=O)N[C@@H](CCCNC(=N)N)C(=O)N1CCC[C@H]1C(=O)N[C@H](C)C(N)=O [Cetrorelix, N-acetyl-3-(2-naphthyl)-D-alanyl-4-chloro-D-phenylalanyl-3-(3-pyridyl)-D-alanyl-L-seryl-L-tyrosyl-D-citrullyl-L-leucyl-L-arginyl-L-prolyl-D-alaninamide] (Ac-[d2Nal][dPhe(4-Cl)][d3Pal]SY[dCit]LRP[dA]-NH2)
Heifers showing estrous behavior, compared with estradiol-progesterone treatment (mature Angus heifers; 3 mg cetrorelix i/m): greater proportion | Pregnant/Double AI (mature Angus heifers; [2]): 7/9 | Pregnant/Double AI, percent (mature Angus heifers; [2]): 78% | Pregnant/Single AI (mature Angus heifers; [2]): 8/10 | Pregnant/Single AI, percent (mature Angus heifers; [2]): 80% | Ovulations that occurred between 72 to 96 hr after prostaglandin injection (mature Angus heifers; cetrorelix protocol): 90% | Pregnant/Total, percent (pregnancy rate) (mature Angus heifers; random day of cycle, 3 mg cetrorelix i/m or 1 mg estradiol benzoate i/m, CIDR 8 days): 79% | Pregnant/Total (mature Angus heifers; random day of cycle, 3 mg cetrorelix i/m or 1 mg estradiol benzoate i/m, CIDR 8 days, PGF, GnRH at AI): 15/19 | Plasma LH response to GnRH challenge [1]: did not register an increase in LH | Plasma LH response to GnRH challenge ([1]; listed as cetrorelix): LH levels remained unchanged; also recorded: block the GnRH-induced LH release | Ovulation (Yes/No) within 48 hr of GnRH treatment ([1]; heifers, 3 mg antagonist 60 min before GnRH): No | Ovulation (Yes/No) within 48 hr of GnRH treatment ([1]; heifers, 3 mg antagonist 60 min before GnRH, listed as cetrorelix): prevent GnRH-induced ovulations | Plasma LH concentration at 60 minute, group Mean ([1]; heifers, after GnRH injection): 12.83 mIU/ml | Plasma LH concentration at 120 minute, group Mean ([1]; heifers, after GnRH injection): 12.18 mIU/ml | Plasma LH concentration at −60 minute, group Mean ([1]; heifers, time of 3 mg GnRH antagonist injection): 11.63 mIU/ml | Plasma LH concentration at 0 minute, group Mean ([1]; heifers, time of GnRH injection): 10.07 mIU/ml | Dominant follicle diameter (mm) 48 hr after GnRH Injection [1, 3]: 9.8 mm and 12 mm | Dominant follicle diameter (mm) at GnRH injection [1, 3]: 7.5 mm and 10.5 mm | Plasma LH concentration at 60 minute [1, 4]: 18.33 mIU/ml and 22.72 mIU/ml and 5.12 mIU/ml and 5.15 mIU/ml | Plasma LH concentration at 120 minute [1, 4]: 23.74 mIU/ml and 15.04 mIU/ml and 4.60 mIU/ml and 5.32 mIU/ml | Plasma LH concentration at −60 minute ([1]; individual heifers, time of 3 mg GnRH antagonist injection, 60 mins before GnRH): 24.29 mIU/ml and 12.03 mIU/ml and 5.24 mIU/ml and 4.96 mIU/ml | Plasma LH concentration at 0 minute ([1]; individual heifers, time of GnRH injection, 3 mg antagonist at −60 min): 18.10 mIU/ml and 12.23 mIU/ml and 5.29 mIU/ml and 4.66 mIU/ml
